Patent US4582698A, “Process for imaging cardiac infarcts” (The Dow Chemical Company, priority 1983, dated 1986)
Entries after “also recorded” stand apart in the source; their conditions may differ. Like-named read-outs stand apart in the source and are kept apart here.

Columns and labels:
[1] = tested on: damaged cardiac tissue; assay: Ratio of activity in damaged vs normal cardiac tissue of rats (Table II); format: in vivo, rat; conditions: isoproterenol-damaged rats vs control rats; 60 minutes after injection
Method: The heart was excised, cut open, and blotted. […] Other organs were also dissected and weighed.
Control animals (animals not injected with isoproterenol) were also injected with several ^99m Tc complexes.

[2] = in vivo; cited from earlier work
[3] = tested on: infarcts; conditions: cited from earlier work
[4] = rat, in vivo, iv, 1 h
Method: (§1) The dosage used was proportional to the weight of the rats (30 mg isoproterenol hydrochloride/kilogram of body weight).
(§2) After five hours, the animals were injected with 50 μl (~1 mCi) of the above radioactive solution via the tail vein. The animals were killed by cervical dislocation 60 minutes after the injection of the technetium complex. The heart was excised, cut open, and blotted. Heart tissue was then washed with isotonic saline solution and weighed. Other organs were also dissected and weighed. The amount of radiation in each tissue was quantitatively determined using a NaI scintillation counter. Fifty μl standards of the complex solution were also counted. […] The levels are expressed as a percent of the original dose of radioactivity which was taken up by the tissue or fluid (blood).

[5] = Tissue distribution of Tc-99m agents in rats with isoproterenol-induced heart damage (Table I); conditions: 60 minutes after i.v. (tail vein) injection
Method: as §1, §2

O=P([O-])([O-])OP(=O)([O-])[O-].[99Tc] [Pyrophosphate, ^99m Tc-pyrophosphate]
% Dose/gram in Damaged Heart/% Dose/gram in Normal Heart [1]: 21.4 | blood clearance [2]: relatively slow | infarct to bone ratio ([3]; compared to other ^99m Tc bone seeking agents): relatively high | detection of recent infarcts ([3]; in vivo): inability to detect recent infarcts | interference from skeletal structures in infarct imaging ([3]; ribs and sternum / overlying skeletal structures): less interference from the ribs and sternum; also recorded: interference due to uptake in overlying skeletal structures | % Dose/g of Tissue (Fluid), Blood [4]: 0.182 % Dose/g | % Dose/g of Tissue (Fluid), Liver [4]: 0.131 % Dose/g | % Dose/g of Tissue (Fluid), Muscle [4]: 0.026 % Dose/g

O.O.O=P([O-])([O-])CP(=O)([O-])[O-].[99Tc+4] [Methylenediphosphonate, ^99m Tc-methylenediphosphonate]
% Dose/gram in Damaged Heart/% Dose/gram in Normal Heart [1]: 20.5 | % Dose/g of Tissue (Fluid), Blood ([5]; blood): 0.051 % Dose/g | % Dose/g of Tissue (Fluid), Liver ([5]; liver): 0.060 % Dose/g | % Dose/g of Tissue (Fluid), Muscle ([5]; muscle): 0.018 % Dose/g | accumulation in infarcts ([3]; in vivo): shown to accumulate in infarcts

^99m Tc-hydroxyethylenediphosphonate
accumulation in infarcts ([3]; in vivo): shown to accumulate in infarcts

^99m Tc-glucoheptonate
accumulation in infarcts ([3]; in vivo): shown to accumulate in infarcts
